Experimental data taken from patent US6413999B1, “Treatment for acute physical insult to the central nervous system” (University of Saskatchewan Technologies Inc., priority 1999, dated 2002).

What was measured:
Assay type in all cases: in vivo, rat
[1] = test system: Wistar rats with clip compression injury at the T6 spinal cord level; assay: Functional recovery after spinal cord compression (angleboard, modified Tarlov score, BBB scale)
Description: (§1) Adult male Wistar rats (˜320 g) were obtained from Charles River Canada and housed in a temperature-regulated animal facility, exposed to a 12 hour light/dark cycle and had free access to food and water. Animals were treated in accordance with the guidelines of the Canadian Council on Animal Care. Prior in surgery, the rats received the analgesic Buprenorphine-hydrochloride subcutaneously at a dose of 0.05 mg/kg and then every 12 hours for the first 72 hours following surgery. Anesthesia was performed with Halothane (5% induction and 1% maintenance). Laminectomy was performed aseptically at T5-T6 to expose the spinal cord. […]
A semiquantitative assessment of hindlimb function during open field walking gas performed using the modified Tarlov score (Tariq et al.). Spontaneous activity of hind limb was scored as follows: 0=total paraplegia of hindlimbs; 1=no spontaneous movements but responds to hindlimb pinch; 2=spontaneous movement; 3=able to support weight but unable to walk; 4=walks with gross deficit; 5=walks with mild deficit on broad flat surface, 6=able to walk on broad flat surface and support weight on a 1.8 cm wide ledge; 7=walks on ledge. […]

[2] = test system: rats with acute physical insult to the CNS; assay: Inflammation (observation, ICAM-1 and iNOS levels) following insult; settings: OTC following insult, compared to saline-treated controls
Description: Inflammation was assessed by observation and by measurement of ICAM-1 and iNOS levels. A significant increase in inflammation was observed following insult.

[3] = test system: Wistar rats with clip compression injury at the T6 spinal cord level; assay: Spinal cord protein carbonyl content after clip compression injury at T6; settings: 24 hours post-trauma; T5 (P<0.05), T6, T7 (P<0.01), T9 (P<0.05) versus saline; FIG. 3
Description: as §1
(§2) A total of 54 animals were used to determine the onset of oxidative stress following insult. […] Spinal cord segments were frozen in liquid nitrogen and stored at −80° C. until analyzed.
Protein carbonyl content was determined spectrophotometrically using 2,4-dinitrophenylhydrazine (DNPH) to trap carbonyls with the adduct formed measured at 360 nm. Results are expressed as pmoles of DNPH incorporated per mg of protein calculated using a molar absorption coefficient of 22,000 M^−1 cm^−1 for aliphatic hydrazones.

[4] = test system: Wistar rats with clip compression injury at the T6 spinal cord level; assay: Spinal cord histomorphometry (luxol fast blue white matter) 6 weeks after injury
Description: as §1
Following 6 weeks of behavioral evaluation, the spinal cords were fixed by transcardial perfusion with 0.03M phosphate-buffered saline (pH 7.4) containing 1% sodium nitrite in rats anesthetized with Halothane, followed by perfusion (100 ml/100 g) with either 4% formaldehyde (freshly prepared from paraformaldehyde) or FAM solution (formaldehyde, acetic acid and methanol in 1:1:8 ratio) and left in the same fixative for 5 days. […] Area of white matter was quantified using Northern Eclipse™ software and expressed in pixels.

[5] = Body weight after spinal cord clip compression injury; settings: T6 clip compression; OTC 12 mmoles/kg i.p. 30 min after injury, then 4 mmoles/kg every 12 h for five days; pre-surgery 328.3±4.2 g; saline 403.9±9.5 g; P=0.0337
Description: Adult male Wistar rats (˜320 g) were obtained from Charles River Canada and housed in a temperature-regulated animal facility, exposed to a 12 hour light/dark cycle and had free access to food and water. Animals were treated in accordance with the guidelines of the Canadian Council on Animal Care. Prior in surgery, the rats received the analgesic Buprenorphine-hydrochloride subcutaneously at a dose of 0.05 mg/kg and then every 12 hours for the first 72 hours following surgery. Anesthesia was performed with Halothane (5% induction and 1% maintenance). Laminectomy was performed aseptically at T5-T6 to expose the spinal cord. A 5-second clip compression injury was induced at the T6 spinal cord level using a modified Kerr-Lougheed aneurysm clip with a calibrated force of 50 g as described in Rivlin et al. (Surg. Neurol., 9, 39-43, 1979) and Khan et al. (Can. J. Neurol. Sci., 10, 161-165, 1983). For delivery of drug or saline vehicle a sterile catheter was placed subcutaneously running from the dorsum to enter the peritoneal cavity ventrally; this was done before the laminectomy was performed. Thirty minutes following spinal cord compression an initial dose of OTC or phosphate-buffered saline vehicle (“saline”) was delivered intraperitoneally and then subsequent doses were administered every 12 hours for the next five days. […]

[6] = test system: rats with unilateral carotid artery ligation and 12% oxygen atmosphere; assay: Vascular event model (unilateral carotid artery ligation plus 12% oxygen): brain damage and GSH
Description: Nine to eleven week old rats were obtained and housed as described in Example 1A. Animals were treated in accordance with the guidelines of the Canadian Council on Animal Care.
The rats were randomly divided into two groups. Both groups of rats underwent unilateral carotid artery ligation and were then subjected to a 12% oxygen atmosphere for 35 minutes. Fifteen minutes after insult, rats of one group received an initial dose of OTC (12 mmoles/kg body weight) and rats of the other group receive the phosphate-buffered saline vehicle (“saline”). Rats received subsequent doses of OTC (4 mmoles/kg body weight) or saline, as appropriate, every 12 hours for 3 days.
Rats were sacrificed 1 week following insult and brain damage was assessed.
Brain damage following a vascular event was assessed using the method of Thornhill, et al. (Brain Res. 825(1-2):36-45 (1999).

[7] = test system: Wistar rats with clip compression injury at the T6 spinal cord level; assay: Spinal cord glutathione reductase activity after clip compression injury at T6; settings: 24 hours following spinal cord injury; T5 (P<0.05), T6, T7, T9 (P<0.01) versus saline vehicle; FIG. 2
Description: (§3) Adult male Wistar rats (˜320 g) were obtained from Charles River Canada and housed in a temperature-regulated animal facility, exposed to a 12 hour light/dark cycle and had free access to food and water. Animals were treated in accordance with the guidelines of the Canadian Council on Animal Care. Prior in surgery, the rats received the analgesic Buprenorphine-hydrochloride subcutaneously at a dose of 0.05 mg/kg and then every 12 hours for the first 72 hours following surgery. Anesthesia was performed with Halothane (5% induction and 1% maintenance). Laminectomy was performed aseptically at T5-T6 to expose the spinal cord. A 5-second clip compression injury was induced at the T6 spinal cord level using a modified Kerr-Lougheed aneurysm clip with a calibrated force of 50 g as described in Rivlin et al. (Surg. Neurol., 9, 39-43, 1979) and Khan et al. (Can. J. Neurol. Sci., 10, 161-165, 1983). […]
as §2
Glutathione reductase was calculated by measuring the disappearance of NADPH (SIGMA (trade-mark)) in the presence of oxidized-glutathione based upon the procedure described by Eklow et al. (Eur. J. Biochem. 138, 459-463 (1984)), as applied in Juurlink et al (Glia 22, 371-378, 1998)).

[8] = test system: Wistar rats with clip compression injury at the T6 spinal cord level; assay: Spinal cord GSH content after 50 g clip compression injury at T6; settings: 26 hours following injury and 2 hours following OTC administration; versus saline P=0.0033; FIG. 4
Description: as §3, §2
GSH was measured using 5,5′-dithio-bis(2-nitrobenzoic) acid-derivatization (“DTNB”) followed by HPLC and UV detection. […] The homogenates were centrifuged at 10,000 g for 15 min and supernatants collected, derivatized and analyzed using the Shimadzu reversed-phase HPLC with ultraviolet detection. […]

O=C1N[C@H](C(=O)O)CS1 [OTC, L-2-oxothiazolidine-4-carboxylate]
modified Tarlov score ([1]; 6 weeks after trauma, scale 0-7, after trauma 1, saline 2.4, FIG. 8a): 4.1
angleboard capacity angle ([1]; 6 weeks recovery, before insult 59°, after insult 28°, saline 32°, FIG. 7): 42 °
levels of inflammation (ICAM-1 and iNOS) [2]: lower levels of inflammation
protein carbonyl content in spinal cord [3]: significantly decreased protein carbonyl formation
grey matter sparing at T6 [4]: did not result in grey matter sparing
weight of animals 6 weeks after surgery [5]: 434.3 ± 9.3 g
brain damage score ([6]; 1 week following insult, OTC 12 mmoles/kg 15 min after insult, then 4 mmoles/kg every 12 h for 3 days, saline score 2.67, FIG. 9): 1.86
concentrations of GSH in the affected CNS regions ([6]; insult by a vascular event, compared to saline-treated animals): higher concentrations of GSH
glutathione reductase activity in spinal cord [7]: significantly inhibited the decrease in glutathione reductase activity
GSH levels in the affected CNS region [8]: increased GSH levels
